Holding throughout (test): CEREP protein kinase assay
Assay type in all cases: biochemical

Experiment [1] concerns the target T1, CDK2 (Homo sapiens, UniProt P24941).
T1 construct: purchased CEREP Panlabs (Eurofins)

The target in experiment [2] is T2, AURA (Homo sapiens, UniProt O14965).
T2 construct: purchased CEREP Panlabs (Eurofins)
T2 sequence (O14965 1-403): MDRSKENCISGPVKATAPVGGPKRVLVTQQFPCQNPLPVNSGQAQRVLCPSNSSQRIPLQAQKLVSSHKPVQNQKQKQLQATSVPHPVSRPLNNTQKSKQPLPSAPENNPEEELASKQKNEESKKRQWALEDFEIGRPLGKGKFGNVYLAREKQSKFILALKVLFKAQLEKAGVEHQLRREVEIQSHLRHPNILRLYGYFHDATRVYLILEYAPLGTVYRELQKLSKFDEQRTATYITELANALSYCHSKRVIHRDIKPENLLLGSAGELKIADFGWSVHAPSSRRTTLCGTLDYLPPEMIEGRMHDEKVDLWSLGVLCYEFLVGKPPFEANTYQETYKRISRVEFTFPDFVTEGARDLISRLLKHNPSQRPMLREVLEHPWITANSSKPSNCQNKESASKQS

Experiment [3] deals with T3, EPHA3 (Homo sapiens, UniProt P29320).
T3 construct: purchased CEREP Panlabs (Eurofins)
T3 sequence (P29320 21-983): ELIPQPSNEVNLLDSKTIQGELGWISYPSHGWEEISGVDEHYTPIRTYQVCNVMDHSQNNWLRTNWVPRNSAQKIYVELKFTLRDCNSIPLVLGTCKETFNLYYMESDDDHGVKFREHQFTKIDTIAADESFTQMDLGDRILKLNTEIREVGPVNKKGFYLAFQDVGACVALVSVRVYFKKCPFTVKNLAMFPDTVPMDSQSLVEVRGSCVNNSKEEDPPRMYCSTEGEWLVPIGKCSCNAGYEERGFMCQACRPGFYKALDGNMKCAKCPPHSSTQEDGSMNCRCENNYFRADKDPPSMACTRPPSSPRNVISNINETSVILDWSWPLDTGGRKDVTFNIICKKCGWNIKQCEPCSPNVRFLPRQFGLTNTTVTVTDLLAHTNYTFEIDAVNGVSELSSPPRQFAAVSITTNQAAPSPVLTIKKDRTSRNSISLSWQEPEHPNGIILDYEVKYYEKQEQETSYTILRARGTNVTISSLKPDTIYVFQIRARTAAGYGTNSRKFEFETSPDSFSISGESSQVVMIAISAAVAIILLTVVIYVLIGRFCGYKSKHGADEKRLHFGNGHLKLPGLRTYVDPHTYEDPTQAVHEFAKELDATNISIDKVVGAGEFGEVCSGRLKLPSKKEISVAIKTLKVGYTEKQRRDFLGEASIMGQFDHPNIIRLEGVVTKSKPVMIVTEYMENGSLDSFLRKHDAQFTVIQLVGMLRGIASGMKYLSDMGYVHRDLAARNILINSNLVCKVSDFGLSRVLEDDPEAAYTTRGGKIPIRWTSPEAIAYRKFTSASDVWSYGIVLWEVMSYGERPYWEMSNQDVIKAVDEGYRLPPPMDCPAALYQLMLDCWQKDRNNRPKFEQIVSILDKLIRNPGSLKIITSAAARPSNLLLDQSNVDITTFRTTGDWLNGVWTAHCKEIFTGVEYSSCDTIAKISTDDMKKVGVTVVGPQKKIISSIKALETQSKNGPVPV

Experiment [4] has as its target T4, PDGFRb (Homo sapiens, UniProt P09619).
T4 construct: purchased CEREP Panlabs (Eurofins)

In experiment [5] the target is T5, IKKe (Homo sapiens, UniProt Q14164).
T5 construct: purchased CEREP Panlabs (Eurofins)
T5 sequence (Q14164 1-716): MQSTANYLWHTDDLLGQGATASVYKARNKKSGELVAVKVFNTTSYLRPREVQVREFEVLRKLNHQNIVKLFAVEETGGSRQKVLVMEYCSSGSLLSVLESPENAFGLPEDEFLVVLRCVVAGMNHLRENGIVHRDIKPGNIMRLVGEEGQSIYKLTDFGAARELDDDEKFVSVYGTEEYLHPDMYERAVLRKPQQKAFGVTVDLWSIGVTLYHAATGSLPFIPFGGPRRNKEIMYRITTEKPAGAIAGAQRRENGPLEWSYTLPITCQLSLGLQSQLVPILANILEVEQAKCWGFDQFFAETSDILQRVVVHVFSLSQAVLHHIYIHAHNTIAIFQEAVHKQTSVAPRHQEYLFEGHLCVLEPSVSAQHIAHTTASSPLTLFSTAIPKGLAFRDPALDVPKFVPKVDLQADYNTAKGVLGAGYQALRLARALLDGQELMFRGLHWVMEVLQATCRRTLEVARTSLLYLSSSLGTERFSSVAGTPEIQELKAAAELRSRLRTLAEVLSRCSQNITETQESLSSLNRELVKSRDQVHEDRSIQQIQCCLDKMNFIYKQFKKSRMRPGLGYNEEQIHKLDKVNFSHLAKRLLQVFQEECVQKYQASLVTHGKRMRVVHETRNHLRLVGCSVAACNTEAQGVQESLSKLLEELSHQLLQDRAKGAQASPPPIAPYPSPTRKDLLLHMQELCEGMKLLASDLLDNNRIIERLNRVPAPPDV

Experiment [6] addresses T6, TRKA (Homo sapiens, UniProt P04629).
T6 construct: purchased CEREP Panlabs (Eurofins)

T6 sequence (P04629 33-796): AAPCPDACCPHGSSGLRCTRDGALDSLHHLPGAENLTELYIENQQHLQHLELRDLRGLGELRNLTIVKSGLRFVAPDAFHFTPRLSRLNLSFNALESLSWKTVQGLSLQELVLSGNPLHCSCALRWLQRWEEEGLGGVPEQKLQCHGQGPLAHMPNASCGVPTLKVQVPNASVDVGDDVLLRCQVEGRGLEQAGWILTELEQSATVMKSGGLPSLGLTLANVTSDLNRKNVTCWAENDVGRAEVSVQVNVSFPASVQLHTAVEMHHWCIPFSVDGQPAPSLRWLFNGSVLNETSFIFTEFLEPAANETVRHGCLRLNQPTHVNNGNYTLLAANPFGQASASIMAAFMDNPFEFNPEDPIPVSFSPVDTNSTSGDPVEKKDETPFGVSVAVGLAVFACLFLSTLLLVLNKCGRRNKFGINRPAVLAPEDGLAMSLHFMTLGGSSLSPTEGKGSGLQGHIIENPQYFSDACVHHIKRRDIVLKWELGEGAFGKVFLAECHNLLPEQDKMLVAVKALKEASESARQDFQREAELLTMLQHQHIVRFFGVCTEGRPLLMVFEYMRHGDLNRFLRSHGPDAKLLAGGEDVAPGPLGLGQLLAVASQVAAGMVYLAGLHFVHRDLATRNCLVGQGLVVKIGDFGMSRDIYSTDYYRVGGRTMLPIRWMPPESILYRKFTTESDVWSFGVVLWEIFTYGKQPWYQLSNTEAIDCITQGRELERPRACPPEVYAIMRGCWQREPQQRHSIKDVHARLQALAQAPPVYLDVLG
T4 sequence (P09619 33-1106): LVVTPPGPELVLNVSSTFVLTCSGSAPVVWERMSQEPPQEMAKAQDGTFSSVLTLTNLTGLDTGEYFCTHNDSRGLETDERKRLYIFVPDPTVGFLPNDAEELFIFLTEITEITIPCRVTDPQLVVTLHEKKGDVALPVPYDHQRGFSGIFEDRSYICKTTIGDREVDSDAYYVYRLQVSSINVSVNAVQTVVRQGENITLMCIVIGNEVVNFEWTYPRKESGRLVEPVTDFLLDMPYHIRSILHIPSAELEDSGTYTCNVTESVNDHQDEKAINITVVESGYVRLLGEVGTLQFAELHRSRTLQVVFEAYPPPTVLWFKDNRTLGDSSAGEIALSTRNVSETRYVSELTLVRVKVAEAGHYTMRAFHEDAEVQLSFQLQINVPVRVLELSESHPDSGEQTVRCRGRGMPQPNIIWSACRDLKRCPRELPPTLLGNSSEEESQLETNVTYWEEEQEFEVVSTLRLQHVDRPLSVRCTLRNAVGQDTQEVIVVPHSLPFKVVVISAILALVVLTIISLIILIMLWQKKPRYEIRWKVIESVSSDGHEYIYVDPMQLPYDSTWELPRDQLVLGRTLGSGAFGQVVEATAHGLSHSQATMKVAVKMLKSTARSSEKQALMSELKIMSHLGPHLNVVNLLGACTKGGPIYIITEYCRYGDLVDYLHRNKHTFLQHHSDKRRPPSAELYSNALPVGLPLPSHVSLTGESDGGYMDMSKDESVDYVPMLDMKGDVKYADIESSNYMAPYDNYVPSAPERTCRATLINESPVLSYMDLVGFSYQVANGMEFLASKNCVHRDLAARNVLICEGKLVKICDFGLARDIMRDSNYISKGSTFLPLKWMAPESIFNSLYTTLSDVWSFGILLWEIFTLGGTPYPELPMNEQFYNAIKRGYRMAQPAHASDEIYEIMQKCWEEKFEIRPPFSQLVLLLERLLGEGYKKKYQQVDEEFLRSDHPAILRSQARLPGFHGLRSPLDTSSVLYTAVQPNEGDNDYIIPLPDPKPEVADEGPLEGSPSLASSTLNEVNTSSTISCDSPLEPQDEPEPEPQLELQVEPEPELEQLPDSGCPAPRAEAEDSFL

Consider `O=c1[nH]ccc2cc(F)c(NS(=O)(=O)c3ccc(N4CC[C@@H](O)C4)s3)cc12` [LSN3213128, N-(6-Fluoro-1-oxo-1,2-dihydroisoquinolin-7-yl)-5-[(3R)-3-hydroxypyrrolidin-1-yl]thiophene-2-sulfonamide], for which the inhibition (usually the relative decrease from the control value, in per cent) at 0.2 µM is -10.2% in experiment [1] (@ 0.2 uM); -4.11% in experiment [2] (@ 0.2 uM); -2.09% in experiment [3] (@ 0.2 uM); -85.9% in experiment [4] (@ 0.2 uM); -0.0712% in experiment [5] (@ 0.2 uM); -1.15% in experiment [6] (@ 0.2 uM). Besides, the inhibition at 2 µM was -1.29% in experiment [1] (@ 2 uM); 1.86% in experiment [2] (@ 2 uM); 9.04% in experiment [3] (@ 2 uM); -63.2% in experiment [4] (@ 2 uM); 8.91% in experiment [5] (@ 2 uM); 8.27% in experiment [6] (@ 2 uM). For the same molecule, the inhibition at 20 µM in experiment [1] (@ 20 uM) is 29.2%; in experiment [2] (@ 20 uM), 4.28%; in experiment [3] (@ 20 uM), 51.6%; in experiment [4] (@ 20 uM), -71%; in experiment [5] (@ 20 uM), 11.7%; in experiment [6] (@ 20 uM) it was 10.1%.

These data come from article PMC6193938, “Characterization of a novel AICARFT inhibitor which potently elevates ZMP and has anti-tumor activity in murine models” (Scientific Reports, 2018).
